# Results published in patent US20250223259A1, “PROTEASE INHIBITORS FOR TREATING OR PREVENTING CORONAVIRUS INFECTION” (Merck Sharp & Dohme LLC, priority 2022, published 2025).
# Target: SARS2 coronavirus 3CL protease (Severe acute respiratory syndrome coronavirus 2 (2019-nCoV) (SARS-CoV-2), UniProt P0DTD1)
# Experiment: SARS2 Coronavirus 3CL Protease Assay (FRET)
# Type: biochemical
# Conditions: SARS2 3CLPro FRET assay; 5 nM enzyme, 30 min pre-incubation with compound, 15 uM peptide substrate, 4 h room temperature
# Procedure: The enzymatic activity of SARS2 coronavirus 3CL protease was determined in a FRET (fluorescence resonance energy transfer)-based assay measuring the cleavage of a peptide substrate by recombinantly expressed and purified enzyme. Cleavage of the peptide SEQ ID NO:1 (CPC Scientific) by SARS2 3CL protease was measured in reaction buffer (50 mM Hepes pH 7.5, 0.01% Triton X-100, 0.01% BSA, 2 mM DTT). SARS2 3CL protease (5 nM final concentration) was pre-incubated with compound for 30 minutes before reaction initiation with peptide substrate (15 uM final concentration). Room temperature reactions (4 h) were quenched by addition of a high dose of inhibitor and read on an appropriate plate reader (excitation wavelength=495 nm, emission wavelength=520 nm). Data were analyzed by a standard 4 parameter fit to determine IC50 values.
row,Structure (SMILES),IC50 [nM]
1,"CNC(=O)C(=O)[C@H](CCC(C)(F)F)NC(=O)[C@@H]1CC2(CCN1C(=O)[C@@H](NC(=O)OC)C(C)(C)C)CC2 [Example 21, Methyl ((S)-1-((S)-5-(((S)-6,6-difluoro-1-(methylamino)-1,2-dioxoheptan-3-yl)carbamoyl)-6-azaspiro[2.5]octan-6-yl)-3,3-dimethyl-1-oxobutan-2-yl)carbamate]",6.5
2,"CNC(=O)C(=O)[C@H](CCC(C)(F)F)NC(=O)[C@@H]1CC[C@H](C)N1C(=O)[C@@H](NC(=O)OC)C(C)(C)C [Example 85, methyl ((S)-1-((2S,5S)-2-(((S)-6,6-difluoro-1-(methylamino)-1,2-dioxoheptan-3-yl)carbamoyl)-5-methylpyrrolidin-1-yl)-3,3-dimethyl-1-oxobutan-2-yl)carbamate]",257
3,"COC(=O)N[C@H](C(=O)N1C2CCC(CC2)[C@H]1C(=O)N[C@@H](CCC(C)(F)F)C(=O)C(=O)NC1CC1)C(C)(C)C [Example 59, Methyl ((S)-1-((S)-3-(((S)-1-(cyclopropylamino)-6,6-difluoro-1,2-dioxoheptan-3-yl)carbamoyl)-2-azabicyclo[2.2.2]octan-2-yl)-3,3-dimethyl-1-oxobutan-2-yl)carbamate]",37
4,"COC(=O)N[C@H](C(=O)N1C[C@H](C(F)(F)F)C[C@H]1C(=O)N[C@@H](CCC(C)(F)F)C(=O)C(=O)NC1CC1)C(C)(C)C [Example 67, Methyl ((S)-1-((2S,4R)-2-(((S)-1-(cyclopropylamino)-6,6-difluoro-1,2-dioxoheptan-3-yl)carbamoyl)-4-(trifluoromethyl)pyrrolidin-1-yl)-3,3-dimethyl-1-oxobutan-2-yl)carbamate]",20
5,"CC(C)OC(=O)N[C@H](C(=O)N1CC2(CCCCC2)C[C@H]1C(=O)N[C@@H](CCC(C)(F)F)C(=O)C(=O)NC1CC1)C(C)(C)C [Example 4, Isopropyl ((S)-1-((S)-3-(((S)-1-(cyclopropylamino)-6,6-difluoro-1,2-dioxoheptan-3-yl)carbamoyl)-2-azaspiro[4.5]decan-2-yl)-3,3-dimethyl-1-oxobutan-2-yl)carbamate]",60
6,"COC(=O)N[C@H](C(=O)N1CC2(CCCCC2)C[C@H]1C(=O)N[C@@H](CCC(C)(F)F)C(=O)C(=O)Nc1ccccc1C)C(C)(C)C [Example 12, Methyl ((S)-1-((S)-3-(((S)-6,6-difluoro-1,2-dioxo-1-(o-tolylamino)heptan-3-yl)carbamoyl)-2-azaspiro[4.5]decan-2-yl)-3,3-dimethyl-1-oxobutan-2-yl)carbamate]",41
7,"COC(=O)N[C@H](C(=O)N1C[C@H]2[C@@H]([C@H]1C(=O)N[C@@H](CCC(C)(F)F)C(=O)C(=O)NC1CC1)C2(F)F)C(C)(C)C [Example 111, methyl ((S)-1-((1S,2S,5R)-2-(((S)-1-(cyclopropylamino)-6,6-difluoro-1,2-dioxoheptan-3-yl)carbamoyl)-6,6-difluoro-3-azabicyclo[3.1.0]hexan-3-yl)-3,3-dimethyl-1-oxobutan-2-yl)carbamate]",88
8,"COCCNC(=O)C(=O)[C@H](CCC(C)(F)F)NC(=O)[C@@H]1[C@H]2CCC[C@H]2CN1C(=O)[C@@H](NC(=O)OC)C(C)(C)C [Example 102, methyl ((S)-1-((1S,3aR,6aS)-1-(((S)-6,6-difluoro-1-((2-methoxyethyl)amino)-1,2-dioxoheptan-3-yl)carbamoyl)hexahydrocyclopenta[c]pyrrol-2(1H)-yl)-3,3-dimethyl-1-oxobutan-2-yl)carbamate]",61
9,"COC(=O)N[C@H](C(=O)N1CC(C2CCC2)C[C@H]1C(=O)N[C@@H](CCC(C)(F)F)C(=O)C(=O)NC1CC1)C(C)(C)C (single isomer, unassigned) [Example 1, Methyl ((S)-1-((2S,4(S or R))-4-cyclobutyl-2-(((S)-1-(cyclopropylamino)-6,6-difluoro-1,2-dioxoheptan-3-yl)carbamoyl)pyrrolidin-1-yl)-3,3-dimethyl-1-oxobutan-2-yl)carbamate]",28
10,"CNC(=O)C(=O)[C@H](CCC(C)(F)F)NC(=O)[C@@H]1[C@@H](C(F)(F)F)CCN1C(=O)[C@@H](NC(=O)OC)C(C)(C)C [Example 81, methyl ((S)-1-((2S,3S)-2-(((S)-6,6-difluoro-1-(methylamino)-1,2-dioxoheptan-3-yl)carbamoyl)-3-(trifluoromethyl)pyrrolidin-1-yl)-3,3-dimethyl-1-oxobutan-2-yl)carbamate]",44
11,"CNC(=O)C(=O)[C@H](CCC(C)(F)F)NC(=O)C1CC(C)(F)CCN1C(=O)[C@@H](NC(=O)OC)C(C)(C)C (single isomer, unassigned) [Example 97, methyl ((S)-1-((2S,4S or 2R,4R)-2-(((S)-6,6-difluoro-1-(methylamino)-1,2-dioxoheptan-3-yl)carbamoyl)-4-fluoro-4-methylpiperidin-1-yl)-3,3-dimethyl-1-oxobutan-2-yl)carbamate]",19
12,"COC(=O)N[C@H](C(=O)N1C[C@H]2CCCC[C@H]2C[C@H]1C(=O)N[C@@H](CCC(C)(F)F)C(=O)C(=O)NC1CC1)C(C)(C)C [Example 80, methyl ((S)-1-((3S,4aS,8aS)-3-(((S)-1-(cyclopropylamino)-6,6-difluoro-1,2-dioxoheptan-3-yl)carbamoyl)octahydroisoquinolin-2(1H)-yl)-3,3-dimethyl-1-oxobutan-2-yl)carbamate]",12
13,"CNC(=O)C(=O)[C@H](CCC(C)(F)F)NC(=O)[C@@H]1CC2(CCC2(F)F)CN1C(=O)[C@@H](NC(=O)OC)C(C)(C)C (single isomer, unassigned) [Example 103, methyl ((S)-1-((4(S or R),7S)-7-(((S)-6,6-difluoro-1-(methylamino)-1,2-dioxoheptan-3-yl)carbamoyl)-1,1-difluoro-6-azaspiro[3.4]octan-6-yl)-3,3-dimethyl-1-oxobutan-2-yl)carbamat]",32
14,"COC(=O)N[C@H](C(=O)N1CCC2(CCCC2)CC1C(=O)N[C@@H](CCC(C)(F)F)C(=O)C(=O)NC1CC1)C(C)(C)C (single isomer, unassigned) [Example 34, Methyl ((S)-1-(R or S)-(7-(((S)-1-(cyclopropylamino)-6,6-difluoro-1,2-dioxoheptan-3-yl)carbamoyl)-8-azaspiro[4.5]decan-8-yl)-3,3-dimethyl-1-oxobutan-2-yl)carbamateazaspiro[4.5]decan-8-yl)-3,3-dimethyl-1-oxobutan-2-yl)carbamate]",7.4
15,"CC(C)OC(=O)N[C@H](C(=O)N1CC2(CCCCC2)C[C@H]1C(=O)N[C@@H](CCC(C)(F)F)C(=O)C(=O)NC1CC1)C1CCCCC1 [Example 50, Isopropyl ((S)-1-cyclohexyl-2-((S)-3-(((S)-1-(cyclopropylamino)-6,6-difluoro-1,2-dioxoheptan-3-yl)carbamoyl)-2-azaspiro[4.5]decan-2-yl)-2-oxoethyl)carbamate]",62
16,"COC(=O)N[C@H](C(=O)N1CCC(C)(C)C1C(=O)N[C@@H](CCC(C)(F)F)C(=O)C(=O)NC1CC1)C(C)(C)C (single isomer, unassigned) [Example 73, Methyl ((S)-1-((R or S)-2-(((S)-1-(cyclopropylamino)-6,6-difluoro-1,2-dioxoheptan-3-yl)carbamoyl)-3,3-dimethylpyrrolidin-1-yl)-3,3-dimethyl-1-oxobutan-2-yl)carbamate]",60
17,"COC(=O)N[C@H](C(=O)N1C[C@H](OC(F)(F)F)C[C@H]1C(=O)N[C@@H](CCC(C)(F)F)C(=O)C(=O)NC1CC1)C(C)(C)C [Example 70, Methyl ((S)-1-((2S,4R)-2-(((S)-1-(cyclopropylamino)-6,6-difluoro-1,2-dioxoheptan-3-yl)carbamoyl)-4-(trifluoromethoxy)pyrrolidin-1-yl)-3,3-dimethyl-1-oxobutan-2-yl)carbamate]",36
18,"CC(C)[C@H](NC(=O)OC(C)(C)C)C(=O)N1CC2(CCCCC2)C[C@H]1C(=O)N[C@@H](CCC(C)(F)F)C(=O)C(=O)NC1CC1 [Example 15, Tert-butyl ((S)-1-((S)-3-(((S)-1-(cyclopropylamino)-6,6-difluoro-1,2-dioxoheptan-3-yl)carbamoyl)-2-azaspiro[4.5]decan-2-yl)-3-methyl-1-oxobutan-2-yl)carbamate]",113
19,"COC(=O)N[C@H](C(=O)N1CC2(C(F)(F)F)CCCC2C1C(=O)N[C@@H](CCC(C)(F)F)C(=O)C(=O)NC1CC1)C(C)(C)C (single isomer, unassigned) [Example 98, methyl ((S)-1-((1S,3aS,6aS or 1R,3aR,6aR)-1-(((S)-1-(cyclopropylamino)-6,6-difluoro-1,2-dioxoheptan-3-yl)carbamoyl)-3a-(trifluoromethyl)hexahydrocyclopenta[c]pyrrol-2(1H)-yl)-3,3-dimethyl-1-oxobutan-2-yl)carbamate]",77
20,"CCNC(=O)C(=O)[C@H](CCC(C)(F)F)NC(=O)[C@@H]1[C@H]2CCC[C@H]2CN1C(=O)[C@@H](NC(=O)OC)C(C)(C)C [Example 101, methyl ((S)-1-((1S,3aR,6aS)-1-(((S)-1-(ethylamino)-6,6-difluoro-1,2-dioxoheptan-3-yl)carbamoyl)hexahydrocyclopenta[c]pyrrol-2(1H)-yl)-3,3-dimethyl-1-oxobutan-2-yl)carbamate]",22
21,"COC(=O)N[C@H](C(=O)N1C[C@@H]2CCC[C@@H]2[C@H]1C(=O)N[C@@H](CCC(C)(F)F)C(=O)C(=O)NC1CC1)[C@@H](C)OC [Example 118, methyl ((2S,3R)-1-((1S,3aR,6aS)-1-(((S)-1-(cyclopropylamino)-6,6-difluoro-1,2-dioxoheptan-3-yl)carbamoyl)hexahydrocyclopenta[c]pyrrol-2(1H)-yl)-3-methoxy-1-oxobutan-2-yl)carbamate]",14
22,"COC(=O)N[C@H](C(=O)N1C[C@H]2[C@@H]([C@H]1C(=O)N[C@@H](CCC(C)(F)F)C(=O)C(=O)NC1CC1)C21CCOCC1)C(C)(C)C [Example 60, Methyl ((S)-1-((1R,2S,5S)-2-(((S)-1-(cyclopropylamino)-6,6-difluoro-1,2-dioxoheptan-3-yl)carbamoyl)tetrahydro-3-azaspiro[bicyclo[3.1.0]hexane-6,4′-pyran]-3-yl)-3,3-dimethyl-1-oxobutan-2-yl)carbamate]",19
